# In the supplement of paper PMC4862054:
# Key:
# [1] = system: DU-4475; test: normalised viability (% of control), CellTiter-Blue; higher = more viable cells (100 = DMSO, 0 = benzethonium chloride kill control); conditions: 0.1 nM; incubation time: 72 h
# Method: (§1)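 DSRT, CellTiter-Blue viability, 72 h incubation. Signal is normalised to DMSO and benzethonium chloride controls. Value is the normalised response at dose 1.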
# [2] = system: MDA-MB-231; test: as above; conditions: 0.1 nM; incubation time: 72 h
# Method: as §1
# [3] = system: HCC1937; test: as above; conditions: 0.1 nM; incubation time: 72 h
# Method: as §1
# [4] = system: CAL-51; test: as above; conditions: 0.1 nM; incubation time: 72 h
# Method: as §1
# [5] = system: BT-549; test: as above; conditions: 0.1 nM; incubation time: 72 h
# Method: as §1
# [6] = system: MDA-MB-436; test: as above; conditions: 0.1 nM; incubation time: 72 h
# Method: as §1
# [7] = system: MDA-MB-453; test: as above; conditions: 0.1 nM; incubation time: 72 h
# Method: as §1
# [8] = system: CAL-85-1; test: as above; conditions: 0.1 nM; incubation time: 72 h
# Method: as §1
# [9] = system: BT-474; test: as above; conditions: 0.1 nM; incubation time: 72 h
# Method: as §1
# [10] = system: Hs578T; test: as above; conditions: 0.1 nM; incubation time: 72 h
# Method: as §1
# [11] = system: HCC1143; test: as above; conditions: 0.1 nM; incubation time: 72 h
# Method: as §1
# [12] = system: CAL-120; test: as above; conditions: 0.1 nM; incubation time: 72 h
# Method: as §1
# [13] = system: HCC1599; test: as above; conditions: 0.1 nM; incubation time: 72 h
# Method: as §1
# [14] = system: MFM-223; test: as above; conditions: 0.1 nM; incubation time: 72 h
# Method: as §1
# [15] = system: SK-BR-3; test: as above; conditions: 0.1 nM; incubation time: 72 h
# Method: as §1
# [16] = system: MDA-MB-468; test: as above; conditions: 0.1 nM; incubation time: 72 h
# Method: as §1
# [17] = system: HDQ-P1; test: as above; conditions: 0.1 nM; incubation time: 72 h
# Method: as §1
# [18] = system: CAL-148; test: as above; conditions: 0.1 nM; incubation time: 72 h
# Method: as §1
# [19] = system: DU-4475; test: normalised viability (% of control), CellTiter-Blue; higher = more viable cells (about 100 = DMSO control); conditions: 1 nM; incubation time: 72 h
# Method: (§2)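 DSRT, CellTiter-Blue viability, 72 h incubation. Signal is normalised to DMSO and benzethonium chloride controls. Value is the normalised response at dose 3.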
# [20] = system: CAL-51; test: as above; conditions: 1 nM; incubation time: 72 h
# Method: as §2
# [21] = system: MDA-MB-436; test: as above; conditions: 10 nM; incubation time: 72 h
# Method: as §2
# [22] = system: MDA-MB-453; test: as above; conditions: 1 nM; incubation time: 72 h
# Method: as §2
# [23] = system: BT-474; test: as above; conditions: 10 nM; incubation time: 72 h
# Method: as §2
# [24] = system: Hs578T; test: as above; conditions: 10 nM; incubation time: 72 h
# Method: as §2
# [25] = system: HCC1143; test: as above; conditions: 10 nM; incubation time: 72 h
# Method: as §2
# [26] = system: CAL-120; test: as above; conditions: 10 nM; incubation time: 72 h
# Method: as §2
# [27] = system: HCC1599; test: as above; conditions: 10 nM; incubation time: 72 h
# Method: as §2
# [28] = system: MFM-223; test: as above; conditions: 10 nM; incubation time: 72 h
# Method: as §2
# [29] = system: CAL-85-1; test: normalised viability (% of control), CellTiter-Blue; higher = more viable cells (about 100 = DMSO control); conditions: 100 nM; incubation time: 72 h
# Procedure, shortened: (§3)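 After 72 h on compound-loaded 384-well plates, breast cancer cell lines received 2.5 µl CellTiter-Blue reagent for 2 h at 37 °C. Fluorescence at 560/590 nm was scaled per plate so that vehicle was 100 and a positive kill control was 0. The value stands for normalised viability at a single listed concentration of the series.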
# [30] = system: CAL-148; test: as above; conditions: 100 nM; incubation time: 72 h
# Procedure, shortened: as §3
smiles,measurement,setting,value
C=CC(=O)N1CCC[C@@H](n2nc(-c3ccc(Oc4ccccc4)cc3)c3c(N)ncnc32)C1,normalised viability,[1],94.8%
same,normalised viability,[2],101%
same,normalised viability,[3],93.3%
same,normalised viability,[4],93.1%
same,normalised viability,[5],118%
same,normalised viability,[6],91%
same,normalised viability,[7],103%
same,normalised viability,[8],86.1%
same,normalised viability,[9],107%
same,normalised viability,[10],119%
same,normalised viability,[11],88.1%
same,normalised viability,[12],81.3%
same,normalised viability,[13],105%
same,normalised viability,[14],99.8%
same,normalised viability,[15],90.7%
same,normalised viability,[16],103%
same,normalised viability,[17],105%
same,normalised viability,[18],102%
same,normalised viability,[19],92.8%
same,normalised viability,[20],95%
same,normalised viability,[21],88.2%
same,normalised viability,[22],94.4%
same,normalised viability,[23],84.3%
same,normalised viability,[24],99.8%
same,normalised viability,[25],79.6%
same,normalised viability,[26],83.5%
same,normalised viability,[27],85.6%
same,normalised viability,[28],91.1%
same,normalised viability,[29],77.3%
same,normalised viability,[30],98%
